Test results from patent US4613608A (priority 1982, dated 1986).
In brackets after ≈: the same amount, converted by molar mass.

Columns and labels:
large coronary artery = test: tissue or blood; type: cell-based, dogs; settings: for EC50: Canis lupus familiaris, read-out: ED50 Large (L); for S/L: dog, coronary artery strips
small coronary artery = test: tissue or blood; type: cell-based, dogs; settings: Canis lupus familiaris, read-out: ED50 Small (S)

SMILES | EC50 (large coronary artery) [µg/mL] | S/L (large coronary artery) | EC50 (small coronary artery) [µg/mL]
O=[N+]([O-])OCc1cccnc1 [Compound A, 3-Nitroxymethylpyridine, reference compound] | 0.08 (≈ 0.519 µM) | 23.8 | 1.9 (≈ 12.3 µM)
O=[N+]([O-])OCCCc1ccncc1 [Compound C, 4-(3-Nitroxypropyl)pyridine] | 0.0125 (≈ 0.0686 µM) | > 800 | > 10
O=[N+]([O-])OCc1cccc(Cl)n1 [Compound D, 2-Nitroxymethyl-6-chloropyridine] | 0.0067 (≈ 0.0355 µM) | 925 | 6.2 (≈ 32.9 µM)
